The numbers were not newly measured in patent US7785824B2, “Hydrolysed casein product comprising tripeptides IPP and/or VPP” (Conopco Inc., priority 2003, dated 2010), which cites them from elsewhere.

The IC50 is the concentration needed to halve the response being measured.

Data set [1] has as its target Angiotensin I Converting Enzyme (ACE) (Homo sapiens, UniProt P12821). As to conditions: concentration which results in 50% inhibition of the ACE activity.
The subject of data set [2] is hypertensive humans. The settings on record: in sour milk, placebo-controlled study.

Sequence of Angiotensin I Converting Enzyme (ACE) (P12821 30-1306, species assumed): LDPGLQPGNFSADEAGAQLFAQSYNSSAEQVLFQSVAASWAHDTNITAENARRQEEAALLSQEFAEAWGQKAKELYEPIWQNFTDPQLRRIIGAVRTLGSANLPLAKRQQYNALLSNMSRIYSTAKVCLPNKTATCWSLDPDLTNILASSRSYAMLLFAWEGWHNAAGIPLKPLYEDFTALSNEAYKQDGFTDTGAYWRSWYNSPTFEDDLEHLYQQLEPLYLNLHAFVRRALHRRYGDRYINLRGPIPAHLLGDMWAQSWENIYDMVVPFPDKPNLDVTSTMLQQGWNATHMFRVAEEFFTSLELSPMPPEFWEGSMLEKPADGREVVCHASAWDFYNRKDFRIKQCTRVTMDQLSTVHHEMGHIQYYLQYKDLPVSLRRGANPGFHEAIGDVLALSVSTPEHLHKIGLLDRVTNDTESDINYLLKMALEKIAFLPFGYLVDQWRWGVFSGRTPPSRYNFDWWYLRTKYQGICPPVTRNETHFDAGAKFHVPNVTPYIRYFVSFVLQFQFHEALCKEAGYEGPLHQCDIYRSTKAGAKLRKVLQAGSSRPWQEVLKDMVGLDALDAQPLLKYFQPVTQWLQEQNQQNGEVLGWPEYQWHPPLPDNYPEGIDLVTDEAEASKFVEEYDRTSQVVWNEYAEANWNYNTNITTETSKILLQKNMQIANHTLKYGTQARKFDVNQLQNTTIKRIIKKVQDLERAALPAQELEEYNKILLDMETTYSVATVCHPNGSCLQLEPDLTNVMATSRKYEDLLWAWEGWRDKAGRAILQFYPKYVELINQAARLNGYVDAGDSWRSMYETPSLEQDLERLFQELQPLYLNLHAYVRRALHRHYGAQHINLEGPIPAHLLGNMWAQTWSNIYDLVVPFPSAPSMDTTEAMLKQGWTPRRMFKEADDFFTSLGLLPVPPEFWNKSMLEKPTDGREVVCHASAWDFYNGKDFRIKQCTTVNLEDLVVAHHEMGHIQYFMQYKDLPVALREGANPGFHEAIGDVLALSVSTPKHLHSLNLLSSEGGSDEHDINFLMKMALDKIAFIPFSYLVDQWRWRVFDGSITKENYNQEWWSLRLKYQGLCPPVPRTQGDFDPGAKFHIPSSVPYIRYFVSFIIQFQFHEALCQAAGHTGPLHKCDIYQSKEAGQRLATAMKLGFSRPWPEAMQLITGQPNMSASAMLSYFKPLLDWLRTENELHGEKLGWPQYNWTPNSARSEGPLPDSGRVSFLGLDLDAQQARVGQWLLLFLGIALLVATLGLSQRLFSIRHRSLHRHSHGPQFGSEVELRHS

For Leu-Pro-Pro [LPP], the half-inhibitory concentration (IC50) in data set [1] is 9.6 µM.

As for Ile-Pro-Pro [IPP], the “blood pressure lowering effect” value in data set [2] is on record as “blood pressure lowering effect”. Besides, in data set [1], the IC50 is 5 µM.

Consider Val-Pro-Pro [VPP], for which, in data set [2], the “blood pressure lowering effect” value is “blood pressure lowering effect”. Moreover, in data set [1], the 50% inhibitory concentration (IC50) was 9 µM.
